{"source": "patent EP2316926B1", "about": "“Enantioselective production of alpha-hydroxy carbonyl compounds” (priority 2009, dated 2011)", "key": {"Gox0644": {"biological_target": "Gox0644 (Gluconobacter oxydans, UniProt Q5FT75)", "test": "NADPH-dependent α-ketocarbonyl reductase activity assay (rate of decrease of NADPH at 340 nm)", "type": "biochemical", "conditions": "Table 3; 10 mM substrate, 40 mM K-phosphate buffer pH 7.0, 0.05 mM NAD(P)H, 30 °C; U/mg = µmol x min^-1 x mg protein^-1", "method": "Reactions were induced by addition of enzyme or substrate. One unit was defined as the amount of enzyme activity catalyzing the conversion of 1 µmol of pyridine nucleotide per min at 30 °C. NMR Analysis of Biotransformation Products: Biotransformations were extracted with equal volumes of CDCl3. and ^13C NMR spectra were recorded on a Bruker Avance 300 DPX spectrometer operating at 300 MHz for ^1H NMR and at 75 MHz for ^13C NMR, respectively.\nReactions were induced by addition of enzyme or substrate. One unit of activity was defined as the amount of enzyme activity catalyzing the conversion of 1 µmol of pyridine nucleotide per min at 30 °C.\nThe standard reaction mixture (1 ml) for the reduction reactions of substrates contained 10 mM substrate, 40 mM potassium phosphate buffer (K-phosphate buffer) pH 7.0, 0.05 mM NAD(P)H, and the enzyme unless otherwise noted. Reactions were induced by addition of enzyme or substrate. One unit of activity was defined as the amount of enzyme activity catalyzing the conversion of 1 µmol of pyridine nucleotide per min at 30 °C. […] Table 3: Enzymatic activities with α-diketones, α-ketoaldehydes and α-ketoesters"}, "Gox1615": {"biological_target": "T1, Gox1615 (Gluconobacter oxydans, UniProt Q5FQJ0)", "T1 sequence (Q5FQJ0 1-332)": "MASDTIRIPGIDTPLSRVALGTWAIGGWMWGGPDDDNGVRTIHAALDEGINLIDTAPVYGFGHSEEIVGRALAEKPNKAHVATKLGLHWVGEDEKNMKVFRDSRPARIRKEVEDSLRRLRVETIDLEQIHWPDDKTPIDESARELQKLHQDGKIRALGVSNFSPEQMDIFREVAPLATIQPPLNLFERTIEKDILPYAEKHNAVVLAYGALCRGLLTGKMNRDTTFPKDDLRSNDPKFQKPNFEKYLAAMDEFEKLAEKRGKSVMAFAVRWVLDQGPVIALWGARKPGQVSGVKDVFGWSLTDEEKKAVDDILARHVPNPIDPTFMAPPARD", "test": "NADPH-dependent α-ketocarbonyl reductase activity assay (rate of decrease of NADPH at 340 nm)", "type": "biochemical", "method": "Measurement of enzyme activity: NADPH-dependent α-ketocarbonyl reductases were assayed by a routine method used for NAD(P)-linked enzymes by recording the rate of decrease of NADPH at 340 nm (ε = 6.22 mM^-1 x cm^-1)) with substrates at 30 °C. The reaction mixture (1 ml) for reduction of α-ketocarbonyl substrates contained 10 mM substrate, 40 mM potassium phosphate buffer pH 7.0, 0.025 mM NAD(P)H and the enzyme. Reactions were induced by addition of enzyme or substrate. One unit was defined as the amount of enzyme activity catalyzing the conversion of 1 µmol of pyridine nucleotide per min at 30 °C. NMR Analysis of Biotransformation Products: Biotransformations were extracted with equal volumes of CDCl3. and ^13C NMR spectra were recorded on a Bruker Avance 300 DPX spectrometer operating at 300 MHz for ^1H NMR and at 75 MHz for ^13C NMR, respectively. Spectra were processed using Bruker TonSpin 1.3 for Windows software and calibrated to the residual solvent peak of CDCl3 (δH = 7.26 / δC = 77.0).\nNADPH-dependent α-ketocarbonyl reductases were assayed by a routine method used for NAD(P)-linked enzymes by recording the rate of decrease of NADPH at 340 nm (ε = 6.22 mM^-1.cm^-1) with substrates at 30 °C. The reaction mixture (1 ml) for reduction of α-ketocarbonyl substrates contained 10 mM substrate, 40 mM potassium phosphate buffer pH 7.0, 0.025 mM NADPH, and the enzyme. Reactions were induced by addition of enzyme or substrate. One unit of activity was defined as the amount of enzyme activity catalyzing the conversion of 1 µmol of pyridine nucleotide per min at 30 °C.\nPurified NAD(P)-dependent oxidoreductases were assayed at 30 °C by a routine method used for NAD(P)-linked enzymes by recording the rate of decrease of NAD(P)H at 340 nm (ε = 6.22 mM^-1˙cm^-1) with substrates capable of reduction reactions. The standard reaction mixture (1 ml) for the reduction reactions of substrates contained 10 mM substrate, 40 mM potassium phosphate buffer (K-phosphate buffer) pH 7.0, 0.05 mM NAD(P)H, and the enzyme unless otherwise noted. Reactions were induced by addition of enzyme or substrate. One unit of activity was defined as the amount of enzyme activity catalyzing the conversion of 1 µmol of pyridine nucleotide per min at 30 °C. Measurement of the protein content was performed by the method of Bradford (Bradford M.M., Anal. Biochem. 72:248-254 (1976)). Table 3: Enzymatic activities with α-diketones, α-ketoaldehydes and α-ketoesters"}}, "data": [{"smiles": "CCC(=O)C(C)=O", "note": "[2,3-pentanedione]", "values": [{"measurement": "Gox0644 U/mg*", "setting": "Gox0644", "result": 69.6, "unit": "U/mg"}, {"measurement": "Gox1615 U/mg*", "setting": "Gox1615; Table 3, 10 mM substrate, 40 mM K-phosphate buffer pH 7.0, 0.05 mM NAD(P)H, 30 °C, U/mg = µmol x min^-1 x mg protein^-1", "result": 7.0, "unit": "U/mg"}, {"measurement": "Specific Activity (U/mg)*", "setting": "Gox1615; Table 5, cofactor NADPH, U/mg = µmol/mg·min", "result": 7.0, "unit": "U/mg"}]}]}
